Data: PubChem BioAssay (NCI)
Several values for one entry are separate records, joined by “and”; a condition that tells them apart may be missing. Equal entries are not always repeated.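 Dose response: 5 concentrations. Exposure: 48 h. Format: 96-well plates. Endpoint: linear interpolation; highest concentration if not reached. The concentration for 50% growth inhibition is given as GI50. TGI marks complete inhibition of growth.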 *1 amine or outer side, *2 acyl side, *3 side chain or, on linkers, in order; H or OH if unused. Where a SMILES comes first, the peptide text is derived from it. Bridges are numbered along the chain shown (N, C = ends). Roman numbers before positions name the chains, in order. [ ]: non-standard residue; d: D form. Actinocin(1to9) = Cc1c2oc3c(C)ccc(C(=O)[*:2])c3nc-2c(C(=O)[*:1])c(N)c1=O; NMeV = CN[CH](C(=O)O)C(C)C; Sar = CNCC(=O)O

Columns and labels:
Experiment in all cases: NCI tumour cell line growth inhibition, 48 h
SNB-19 CNS = system: SNB-19 CNS
HOP-62 NSCLC = system: HOP-62 NSCLC
SNB-75 CNS = system: SNB-75 CNS
UACC-257 melanoma = system: UACC-257 melanoma
BT-549 breast = system: BT-549 breast
HT29 colon = system: HT29 colon
SK-MEL-5 melanoma = system: SK-MEL-5 melanoma
MDA-MB-231 breast = system: MDA-MB-231 breast
SF-268 CNS = system: SF-268 CNS
NCI-H226 lung = system: NCI-H226 lung
T-47D breast = system: T-47D breast
HS 578T breast = system: HS 578T breast
IGROV1 ovarian = system: IGROV1 ovarian
SN12C renal = system: SN12C renal
HCT-116 colon = system: HCT-116 colon
SW-620 colon = system: SW-620 colon

SMILES	TGI (SNB-19 CNS)	TGI (HOP-62 NSCLC)	GI50 (SNB-75 CNS) [nM]	TGI (SNB-75 CNS)	TGI (UACC-257 melanoma) [µM]	TGI (BT-549 breast) [µM]	TGI (HT29 colon)	TGI (SK-MEL-5 melanoma) [µM]	TGI (MDA-MB-231 breast) [µM]	GI50 (SF-268 CNS) [nM]	TGI (SF-268 CNS)	GI50 (NCI-H226 lung) [nM]	TGI (NCI-H226 lung)	TGI (T-47D breast) [µM]	TGI (HS 578T breast) [µM]	TGI (IGROV1 ovarian) [µM]	TGI (SN12C renal) [µM]	TGI (HCT-116 colon) [µM]	TGI (SW-620 colon) [µM]
COc1ccc(CC2NC(=O)C(NC(=O)c3c4nc5c(C(=O)NC6C(=O)NC(Cc7ccc(OC)cc7)C(=O)N7CCCC7C(=O)N(C)CC(=O)N(C)C(C(C)C)C(=O)OC6C)ccc(C)c5oc-4c(C)c(=O)c3N)C(C)OC(=O)C(C(C)C)N(C)C(=O)CN(C)C(=O)C3CCCN3C2=O)cc1 (configuration not stated) (I: TY(Me)P[Sar][NMeV] / II: TY(Me)P[Sar][NMeV]; ester I:1-I:C, II:1-II:C; linker I:N-II:N via Actinocin(1to9); configuration not given here)	3.43 µM and 0.539 µM	0.0405 µM and 0.236 µM	55.2	0.0339 µM and 0.324 µM	0.0349	0.0254	0.0174 µM and 0.0463 µM	0.0172	0.731	< 1	0.118 µM and 0.526 µM	< 1	0.0228 µM and 0.0527 µM	0.0705	0.265	–	–	–	–
CN1CC=C(C#CC(C)(C)O)CC1	> 37.5 µM	> 37.5 µM	–	> 37.5 µM	> 37.5	> 37.5	> 37.5 µM	> 37.5	> 37.5	–	> 37.5 µM	–	> 37.5 µM	> 37.5	> 37.5	> 37.5	> 37.5	> 37.5	> 37.5
Cc1cc2c(cc1Cl)SC(NNC(=O)c1ccccc1)=NS2(=O)=O	> 10 µM	> 10 µM	–	> 10 µM	> 10	> 10	> 10 µM	> 10	> 10	–	> 10 µM	–	> 10 µM	> 10	> 10	> 10	> 10	> 10	> 10
CC(/C=C/c1ccccc1)=N\NC(=S)N/N=C(C)/C=C/c1ccccc1	74.7 µM	57.7 µM	–	48.7 µM	> 100	56.7	> 100 µM	42.8	33.9	–	21.7 µM	–	63.1 µM	> 100	> 100	> 100	> 100	> 100	> 100
CNc1ccc(C)cc1S(=O)(=O)c1ccccc1[N+](=O)[O-]	> 100 µM	> 100 µM	–	> 100 µM	–	> 100	> 100 µM	46.1	> 100	–	> 100 µM	–	> 100 µM	> 100	> 100	> 100	> 100	> 100	> 100
CCc1n[nH]c(=O)n1-n1c(C)ccc1C	> 100 µM	> 100 µM	–	> 100 µM	> 100	> 100	> 100 µM	> 100	> 100	–	> 100 µM	–	> 100 µM	> 100	> 100	> 100	> 100	> 100	> 100
O=S(=O)(Cc1ccccc1)c1nnc(S(=O)(=O)c2ccc(Cl)cc2)s1	60.2 µM	47.3 µM	–	32.5 µM	48.8	41.6	60.7 µM	33.6	91.7	–	63.4 µM	–	–	> 100	39.8	–	46.7	36	64.1
O=C(Cn1c2ccc(Br)cc2c2nc3ccccc3nc21)NNC(=O)NC1CCCCC1	> 100 µM	78.8 µM	–	73.5 µM	> 100	> 100	–	> 100	> 100	–	> 100 µM	–	–	> 100	> 100	–	> 100	> 100	> 100
O=[N+]([O-])c1ccc(C2=NOC(c3ccccc3)N2C23CC4CC(CC(C4)C2)C3)cc1 (configuration not stated)	–	80.2 µM	–	63.7 µM	> 100	46	44.6 µM	38.4	> 100	–	> 100 µM	–	89.9 µM	> 100	52.6	72.5	> 100	63.9	> 100
COC(=O)C1=C(N)C2=C(N)Oc3ccccc3C2CC1=C(C#N)C#N (configuration not stated)	70.4 µM	> 100 µM	–	68.6 µM	> 100	58.2	53.3 µM	52.7	59.4	–	89.4 µM	–	> 100 µM	67.1	97.9	48.4	92.6	99.2	> 100
CN(C)CCNc1ncnc2nc(-c3ccccc3)c(-c3ccccc3)nc12	–	> 100 µM	–	> 100 µM	> 100	> 100	> 100 µM	> 100	> 100	–	> 100 µM	–	> 100 µM	> 100	> 100	> 100	> 100	> 100	> 100
